Laboratory results published in patent EP0574185B1, “PGE1 analogs” (NEWPHARMA INTERNATIONAL CORPORATION, priority 1992, dated 1993).

Experiments:
Swiss male mice = assay: Motor activity in mice (rota-rod); conditions: 5 mg/kg, i.p. (table); positive control
platelets = conditions: background statement; cited from earlier work
patients = conditions: three or four suppositories of 1 mg at regular intervals; various studies; cited from earlier work

SMILES | concentration that inhibits platelets aggregation "in vitro" (platelets) [µM] | other results
CN1C(=O)CN=C(c2ccccc2)c2cc(Cl)ccc21 [Diazepam, reference compound] |  | Fraction (animals fallen before 300 sec/total number of animals) (Swiss male mice): 8/10
CCCCC[C@H](O)/C=C/[C@H]1C(=O)C[C@H](O)[C@@H]1C/C=C\CCCC(=O)O [PGD2] | 0.1 | 
CCCCC(C)(C)[C@H](O)/C=C/[C@H]1[C@H](O)CC(=O)[C@@H]1CCCC/C=C/C(=O)OC (relative stereo) [gemeprost, 16,16-dimethyl-trans-Δ^2-PGE1 methyl ester] |  | complete abortions (% of the patients) (patients): more than 90%
CCCCC[C@H](O)/C=C/[C@H]1[C@H](O)CC(=O)[C@@H]1CCCCCCC(=O)O [PGE1] | 0.1 | 
